Key:
[1] = target: T1, Epidermal growth factor receptor (Homo sapiens, UniProt P00533); assay: Inhibition of Epidermal growth factor receptor
[2] = target: T1, Epidermal growth factor receptor; assay: Inhibition of Epidermal growth factor receptor-dependent phosphorylation
[3] = target: Protein kinase C alpha type (Homo sapiens, UniProt P17252); assay: Inhibition of Protein kinase C alpha
[4] = target: Platelet-derived growth factor receptor (Homo sapiens, UniProt P09619+P16234); assay: Inhibition of Platelet-derived growth factor receptor-dependent phosphorylation; format: protein-complex assay
[5] = target: Proto-oncogene tyrosine-protein kinase Src (Homo sapiens, UniProt P12931); assay: Inhibition of p60 c-Src tyrosine kinase
[6] = target: Tyrosine-protein kinase ABL (Homo sapiens, UniProt P00519+P42684); assay: Inhibition of v-Abl tyrosine kinase; format: protein assay

Sequence of Proto-oncogene tyrosine-protein kinase Src (P12931 2-536 limits assumed): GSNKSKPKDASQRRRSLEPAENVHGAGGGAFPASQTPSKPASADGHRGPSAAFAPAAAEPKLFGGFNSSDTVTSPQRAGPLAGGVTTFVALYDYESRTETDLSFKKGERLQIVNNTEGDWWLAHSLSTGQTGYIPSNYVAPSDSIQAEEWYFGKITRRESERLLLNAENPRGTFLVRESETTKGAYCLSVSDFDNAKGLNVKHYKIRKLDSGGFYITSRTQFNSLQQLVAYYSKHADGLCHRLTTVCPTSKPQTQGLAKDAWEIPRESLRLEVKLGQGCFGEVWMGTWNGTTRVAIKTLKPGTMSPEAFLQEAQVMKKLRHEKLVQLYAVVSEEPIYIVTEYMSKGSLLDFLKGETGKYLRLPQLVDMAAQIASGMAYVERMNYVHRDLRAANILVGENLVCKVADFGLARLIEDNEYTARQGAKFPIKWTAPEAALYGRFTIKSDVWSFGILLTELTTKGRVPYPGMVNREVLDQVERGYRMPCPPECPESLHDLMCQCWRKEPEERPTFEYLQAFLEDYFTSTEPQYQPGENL
T1 sequence (P00533 whole entry): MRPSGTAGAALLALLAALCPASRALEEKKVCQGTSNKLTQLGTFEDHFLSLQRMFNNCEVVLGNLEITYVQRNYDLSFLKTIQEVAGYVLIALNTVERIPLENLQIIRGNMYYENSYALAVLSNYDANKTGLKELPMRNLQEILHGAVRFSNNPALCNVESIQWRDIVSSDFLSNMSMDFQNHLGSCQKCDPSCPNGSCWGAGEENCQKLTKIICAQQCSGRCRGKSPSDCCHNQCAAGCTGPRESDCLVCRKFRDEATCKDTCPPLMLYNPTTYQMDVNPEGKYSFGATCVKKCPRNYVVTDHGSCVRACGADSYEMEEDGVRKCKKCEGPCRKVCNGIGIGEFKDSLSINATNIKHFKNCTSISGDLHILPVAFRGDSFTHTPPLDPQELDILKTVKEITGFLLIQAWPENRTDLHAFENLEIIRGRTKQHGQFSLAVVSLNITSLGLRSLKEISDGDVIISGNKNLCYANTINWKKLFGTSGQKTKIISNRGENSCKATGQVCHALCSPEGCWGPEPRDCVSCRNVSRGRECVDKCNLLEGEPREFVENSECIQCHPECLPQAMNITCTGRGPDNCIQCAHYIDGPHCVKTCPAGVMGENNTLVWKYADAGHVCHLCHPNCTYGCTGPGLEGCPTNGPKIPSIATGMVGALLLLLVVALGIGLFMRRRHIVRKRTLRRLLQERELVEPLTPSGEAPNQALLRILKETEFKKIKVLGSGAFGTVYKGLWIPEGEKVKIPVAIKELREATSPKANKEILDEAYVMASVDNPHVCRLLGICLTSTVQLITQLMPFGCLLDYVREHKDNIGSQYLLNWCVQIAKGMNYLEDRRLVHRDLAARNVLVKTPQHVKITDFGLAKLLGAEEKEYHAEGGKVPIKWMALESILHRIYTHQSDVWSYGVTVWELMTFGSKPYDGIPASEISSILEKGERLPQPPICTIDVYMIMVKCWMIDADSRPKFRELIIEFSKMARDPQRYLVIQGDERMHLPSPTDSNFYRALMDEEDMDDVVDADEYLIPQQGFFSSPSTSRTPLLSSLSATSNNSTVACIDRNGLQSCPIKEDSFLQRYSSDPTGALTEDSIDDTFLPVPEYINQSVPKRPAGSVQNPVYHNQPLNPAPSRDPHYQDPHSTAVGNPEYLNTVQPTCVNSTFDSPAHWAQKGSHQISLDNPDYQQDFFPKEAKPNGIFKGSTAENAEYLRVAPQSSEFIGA

SMILES | IC50 [1] | IC50 [2] | IC50 [3] | IC50 [4] | IC50 [5] | IC50 [6]
Oc1cc(O)c2c(O)c(-c3cccc(Cl)c3)cnc2c1 | 0.008 µM | 2 µM | > 100 µM | > 10 µM | 8 µM | > 10 µM
COc1cc(O)c2c(O)c(-c3cccc(Cl)c3)cnc2c1 | 0.038 µM | 6 µM | > 100 µM | > 10 µM | > 100 µM | > 100 µM
COc1cc(O)c2c(=O)c(-c3cccc(Cl)c3)coc2c1 | 1.27 µM | > 100 µM | > 100 µM | > 10 µM | > 100 µM | > 100 µM
O=c1c(-c2cccc(Cl)c2)coc2cc(O)ccc12 | 58.8 µM |  |  |  |  | 
Oc1c(-c2cccc(Cl)c2)cnc2ccccc12 | > 100 µM |  |  |  |  | 
COc1cc(O)c2c(=O)c(-c3cccc(Cl)c3)cn(CCc3ccccc3)c2c1 | 4 µM | 1.5 µM |  | > 10 µM |  | 
COc1cc(O)c2c(=O)c(-c3cccc(Cl)c3)cn(C)c2c1 | 0.17 µM | 3 µM | > 100 µM | > 10 µM | > 10 µM | > 10 µM
O=c1c(-c2cccc(Cl)c2)coc2cc(O)cc(O)c12 | 0.095 µM | 12 µM | > 100 µM | > 10 µM | > 100 µM | 20 µM
COC(=O)Cn1cc(-c2cccc(Cl)c2)c(=O)c2c(O)cc(OC)cc21 |  |  | > 100 µM | > 10 µM | > 10 µM | > 10 µM
COc1cc(OC)c2c(=O)c(-c3cccc(Cl)c3)coc2c1 | 500 µM | > 100 µM |  | > 10 µM |  | 
O=c1c(-c2ccc(O)cc2)coc2cc(O)cc(O)c12 [GENISTEIN] |  |  | > 100 µM |  | > 10 µM | > 10 µM
COc1cc2ncnc(Nc3cccc(Cl)c3)c2cc1OC [TYRPHOSTIN AG-1478] |  |  | > 100 µM | > 10 µM | 2.7 µM | 

— ChEMBL document CHEMBL1132606, “Use of a pharmacophore model for the design of EGFR tyrosine kinase inhibitors: isoflavones and 3-phenyl-4(1H)-quinolones” (J Med Chem, 1999)
